Results as given in patent US9167821B2 (priority 2009, dated 2015).
Structures can show the parent of a compound that is named as a salt.

Key:
[1] = for log P (HCOOH) / logp [b]: pH 2.7; for logp [a]: pH 2.3; for logp [c]: pH 7.8
Excerpt: (§1) The determination is effected in the acidic range at pH 2.3 using 0.1% aqueous phosphoric acid and acetonitrile as eluents; linear gradient from 10% acetonitrile to 95% acetonitrile. • ^[b] The LC-MS determination in the acidic range is effected at pH 2.7 using 0.1% aqueous formic acid and acetonitrile (contains 0.1% formic acid) as eluents; linear gradient from 10% acetonitrile to 95% acetonitrile. • ^[c] The LC-MS determination in the neutral range is effected at pH 7.8 using 0.001 molar aqueous ammonium hydrogencarbonate solution and acetonitrile as eluents; linear gradient from 10% acetonitrile to 95% acetonitrile.
(§2) The calibration is effected with unbranched alkan-2-ones (having 3 to 16 carbon atoms) with known log P values (determination of the log P values using the retention times by linear interpolation between two successive alkanones).

Phytophthora infestans = test: whole plant or invertebrate; type: in vivo; conditions: tomato plants, protective spray, 10 ppm active ingredient, evaluation 3 days after inoculation; 0% = control, 100% = no infection

Excerpt for physchem: as §1, §2

CC(C)(C)OC(=O)N1CCC(F)(c2nc(C=NO)cs2)CC1 (mixture of isomers) [tert-Butyl 4-fluoro-4-{4-[(E/Z)-(hydroxyimino)methyl]-1,3-thiazol-2-yl}piperidine-1-carboxylate]
log P (HCOOH) [1]: 2.53

CCCCOCc1ccccc1C1CC(c2csc(C3CCN(C(=O)Cn4nc(C(F)F)cc4C(F)F)CC3)n2)=NO1 (racemic) [I-16]
logp [b] [1]: 4.24^[b]

CC#CCOc1cccc(F)c1C1CC(c2csc(C3CCN(C(=O)Cn4nc(C(F)F)cc4C(F)F)CC3)n2)=NO1 (racemic) [I-29]
logp [a] [1]: 3.46^[a];
logp [c] [1]: 3.42^[c]

C#CCOc1cccc(F)c1C1CC(c2csc(C3CCN(C(=O)Cn4nc(C(F)F)cc4C(F)F)CC3)n2)=NO1 (racemic) [I-30]
logp [a] [1]: 3.18^[a];
logp [c] [1]: 3.15^[c]

O=C(Oc1ccccc1C1CC(c2csc(C3CCN(C(=O)Cn4nc(C(F)F)cc4C(F)F)CC3)n2)=NO1)C1CC1 (racemic) [I-33]
logp [a] [1]: 3.34^[a]
logp [c] [1]: 3.28^[c];

CCC#CCOc1cccc(C2CC(c3csc(C4CCN(C(=O)Cn5nc(C(F)F)cc5C(F)F)CC4)n3)=NO2)c1 (racemic) [I-34]
logp [a] [1]: 3.83^[a]
logp [c] [1]: 3.74^[c];

CC#CCOc1ccccc1C1CC(c2csc(C3CCN(C(=O)Cn4nc(C(F)F)cc4C(F)F)CC3)n2)=NO1 (racemic) [I-35]
logp [a] [1]: 3.65^[a]
logp [c] [1]: 3.55^[c];
efficacy (Phytophthora infestans): 88%

O=C(CC(F)(F)F)Oc1ccccc1C1CC(c2csc(C3CCN(C(=O)Cn4nc(C(F)F)cc4C(F)F)CC3)n2)=NO1 (racemic) [I-36]
logp [a] [1]: 9.43^[a];
logp [c] [1]: 3.52^[c]

CCC#CCOc1ccc(C2CC(c3csc(C4CCN(C(=O)Cn5nc(C(F)F)cc5C(F)F)CC4)n3)=NO2)cc1 (racemic) [I-47]
logp [a] [1]: 3.76^[a]
logp [c] [1]: 3.74^[c];

CC#CCOc1ccc(C2CC(c3csc(C4CCN(C(=O)Cn5nc(C(F)F)cc5C(F)F)CC4)n3)=NO2)cc1 (racemic) [I-48]
logp [a] [1]: 3.43^[a]
logp [c] [1]: 3.42^[c];

O=C(Cn1nc(C(F)F)cc1C(F)F)N1CCC(c2nc(C3=NOC(c4ccccc4COCC(F)(F)F)C3)cs2)CC1 (racemic) [I-52]
logp [b] [1]: 3.4^[b]
logp [c] [1]: 3.6^[c];

CCS(=O)(=O)Cc1ccccc1C1CC(c2csc(C3CCN(C(=O)Cn4nc(C(F)F)cc4C(F)F)CC3)n2)=NO1 (racemic) [I-53]
logp [b] [1]: 2.76^[b]

O=C(Cn1nc(C(F)F)cc1C(F)F)N1CCC(c2nc(C=NO)cs2)CC1 [2-(1-{[3,5-Bis(difluoromethyl)-1H-pyrazol-1-yl]acetyl}piperidin-4-yl)-1,3-thiazole-4-carbaldehyde oxime]
log P (HCOOH) [1]: 1.98
chromatographic logP (physchem; pH 2.7, log P (HCOOH)): 1.93

N=C(N)SCc1ccccc1C1CC(c2csc(C3CCN(C(=O)Cn4nc(C(F)F)cc4C(F)F)CC3)n2)=NO1 (stereo not shown) [2-{3-[2-(1-{[3,5-Bis(difluoromethyl)-1H-pyrazol-1-yl]acetyl}piperidin-4-yl)-1,3-thiazol-4-yl]-4,5-dihydro-1,2-oxazol-5-yl}benzyl imidothiocarbamate]
log P (HCOOH) [1]: 1.68

C=CCOc1cccc(Cl)c1C1CC(c2csc(C3CCN(C(=O)Cn4nc(C(F)F)cc4C(F)F)CC3)n2)=NO1 (stereo not shown) [I-51, 1-[4-(4-{5-[2-(Allyloxy)-6-chlorophenyl]-4,5-dihydro-1,2-oxazol-3-yl}-1,3-thiazol-2-yl)piperidin-1-yl]-2-[3,5-bis(difluoromethyl)-1H-pyrazol-1-yl]ethanone]
chromatographic logP (physchem; pH 2.7, logp [b]): 3.82
chromatographic logP (physchem; pH 7.8, logp [c]): 3.71

O=C(Cn1nc(C(F)F)cc1C(F)F)N1CCC(c2nc(C3=NOC(c4c(O)cccc4Cl)C3)cs2)CC1 (stereo not shown) [I-54, 2-[3,5-Bis(difluoromethyl)-1H-pyrazol-1-yl]-1-(4-{4-[5-(2-chloro-6-hydroxyphenyl)-4,5-dihydro-1,2-oxazol-3-yl]-1,3-thiazol-2-yl}piperidin-1-yl)ethanone]
chromatographic logP (physchem; pH 2.7, log P (HCOOH)): 2.94
chromatographic logP (physchem; pH 2.7, logp [b]): 2.94

CC(C)(C)OC(=O)N1CCC(F)(c2nc(C=O)cs2)CC1 [VI-1, tert-Butyl 4-fluoro-4-(4-formyl-1,3-thiazol-2-yl)piperidine-1-carboxylate]
chromatographic logP (physchem; pH 2.7, log P (HCOOH)): 2.8

O=Cc1csc(C2CCN(C(=O)Cn3nc(C(F)F)cc3C(F)F)CC2)n1 [VI-2, 2-(1-{[3,5-Bis(difluoromethyl)-1H-pyrazol-1-yl]acetyl}piperidin-4-yl)-1,3-thiazole-4-carbaldehyde]
chromatographic logP (physchem; pH 2.7, log P (HCOOH)): 1.93

CC(C)(C)OC(=O)N1CCC(F)(c2nc(C3=NOC(c4ccccc4)C3)cs2)CC1 (stereo not shown) [X-a-1, tert-Butyl 4-fluoro-4-[4-(5-phenyl-4,5-dihydro-1,2-oxazol-3-yl)-1,3-thiazol-2-yl]piperidine-1-carboxylate]
chromatographic logP (physchem; pH 2.7, log P (HCOOH)): 4.28

CC(C)(C)OC(=O)N1CCC(c2nc(C3=NOC(c4ccccc4C=O)C3)cs2)CC1 (stereo not shown) [X-a-3, tert-Butyl 4-{4-[5-(2-formylphenyl)-4,5-dihydro-1,2-oxazol-3-yl]-1,3-thiazol-2-yl}piperidine-1-carboxylate]
chromatographic logP (physchem; pH 2.7, log P (HCOOH)): 3.76

CC(C)(C)OC(=O)N1CCC(c2nc(C3=NOC(c4ccccc4NS(C)(=O)=O)C3)cs2)CC1 (stereo not shown) [X-a-4, tert-Butyl 4-[4-(5-{2-[(methylsulphonyl)amino]phenyl}-4,5-dihydro-1,2-oxazol-3-yl)-1,3-thiazol-2-yl]piperidine-1-carboxylate]
chromatographic logP (physchem; pH 2.7, log P (HCOOH)): 3

CC(C)(C)OC(=O)N1CCC(c2nc(C3=NOC(c4ccccc4O)C3)cs2)CC1 (stereo not shown) [X-a-5, tert-Butyl 4-{4-[5-(2-hydroxyphenyl)-4,5-dihydro-1,2-oxazol-3-yl]-1,3-thiazol-2-yl}piperidine-1-carboxylate]
chromatographic logP (physchem; pH 2.7, log P (pH2.7)): 3.22

CC(C)(C)OC(=O)N1CCC(c2nc(C3=NOC(c4ccccc4[N+](=O)[O-])C3)cs2)CC1 (stereo not shown) [X-a-6, tert-Butyl 4-{4-[5-(2-nitrophenyl)-4,5-dihydro-1,2-oxazol-3-yl]-1,3-thiazol-2-yl}piperidine-1-carboxylate]
chromatographic logP (physchem; pH 2.7, log P (pH2.7)): 4.01

CC(C)(C)OC(=O)N1CCC(c2nc(C3=NOC(c4ccccc4OCC4CCCCC4)C3)cs2)CC1 (stereo not shown) [X-a-7, tert-butyl 4-(4-{5-[2-(cyclohexylmethoxy)phenyl]-4,5-dihydro-1,2-oxazol-3-yl}-1,3-thiazol-2-yl)piperidine-1-carboxylate]
chromatographic logP (physchem; pH 2.7, log P (pH2.7)): 6.3

COC(=O)c1ccccc1C1CC(c2csc(C3CCN(C(=O)OC(C)(C)C)CC3)n2)=NO1 (stereo not shown) [X-a-8, tert-butyl 4-(4-{5-[2-(methoxycarbonyl)phenyl]-4,5-dihydro-1,2-oxazol-3-yl}-1,3-thiazol-2-yl)piperidine-1-carboxylate]
chromatographic logP (physchem; pH 2.7, log P (HCOOH)): 4.14

CC(C)(C)OC(=O)N1CCC(c2nc(C3=NOC(c4ccccc4C(=O)O)C3)cs2)CC1 (stereo not shown) [X-a-9, 2-(3-{2-[1-(tert-butoxycarbonyl)piperidin-4-yl]-1,3-thiazol-4-yl}-4,5-dihydro-1,2-oxazol-5-yl)benzoic acid]
chromatographic logP (physchem; pH 2.7, log P (HCOOH)): 3.18

CC(C)(C)OC(=O)N1CCC(c2nc(C3=NOC(c4c(F)cccc4C=O)C3)cs2)CC1 (stereo not shown) [X-a-13, tert-Butyl 4-{4-[5-(2-fluoro-6-formylphenyl)-4,5-dihydro-1,2-oxazol-3-yl]-1,3-thiazol-2-yl}piperidine-1-carboxylate]
chromatographic logP (physchem; pH 2.7, log P (HCOOH)): 3.62

CC(C)(C)OC(=O)N1CCC(c2nc(-c3cc(-c4ccccc4C=O)on3)cs2)CC1 [X-b-1, tert-butyl 4-{4-[5-(2-formylphenyl)-1,2-oxazol-3-yl]-1,3-thiazol-2-yl}piperidine-1-carboxylate]
chromatographic logP (physchem; pH 2.7, log P (HCOOH)): 4.1

FC1(c2nc(C3=NOC(c4ccccc4)C3)cs2)CCNCC1 (stereo not shown) [XII-1, 4-fluoro-4-[4-(5-phenyl-4,5-dihydro-1,2-oxazol-3-yl)-1,3-thiazol-2-yl]piperidinium chloride]
chromatographic logP (physchem; pH 2.7, log P (HCOOH)): 1.17

CC(=O)c1ccccc1C1CC(c2csc(C3CCNCC3)n2)=NO1 (stereo not shown) [XII-2, 1-(2-{3-[2-(Piperidin-4-yl)-1,3-thiazol-4-yl]-4,5-dihydro-1,2-oxazol-5-yl}phenyl)ethanone hydrochloride]
chromatographic logP (physchem; pH 2.7, log P (HCOOH)): 0.96

O=Cc1ccccc1C1CC(c2csc(C3CCNCC3)n2)=NO1 (stereo not shown) [XII-3, 2-{3-[2-(Piperidin-4-yl)-1,3-thiazol-4-yl]-4,5-dihydro-1,2-oxazol-5-yl}benzaldehyde hydrochloride]
chromatographic logP (physchem; pH 2.7, log P (HCOOH)): 0.76

CS(=O)(=O)Nc1ccccc1C1CC(c2csc(C3CCNCC3)n2)=NO1 (stereo not shown) [XII-4, 4-[4-(5-{2-[(Methylsulphonyl)amino]phenyl}-4,5-dihydro-1,2-oxazol-3-yl)-1,3-thiazol-2-yl]piperidinium chloride]
chromatographic logP (physchem; pH 2.7, log P (HCOOH)): 0.72

Oc1ccccc1C1CC(c2csc(C3CCNCC3)n2)=NO1 (stereo not shown) [XII-5, 4-{4-[5-(2-Hydroxyphenyl)-4,5-dihydro-1,2-oxazol-3-yl]-1,3-thiazol-2-yl}piperidinium chloride]
chromatographic logP (physchem; pH 2.7, log P (pH2.7)): 0.69

O=[N+]([O-])c1ccccc1C1CC(c2csc(C3CCNCC3)n2)=NO1 (stereo not shown) [XII-6, 4-{4-[5-(2-Nitrophenyl)-4,5-dihydro-1,2-oxazol-3-yl]-1,3-thiazol-2-yl}piperidinium chloride]
chromatographic logP (physchem; pH 2.7, log P (pH2.7)): 1.09

c1ccc(C2CC(c3csc(C4CCNCC4)n3)=NO2)c(OCC2CCCCC2)c1 (stereo not shown) [XII-7, 4-(4-{5-[2-(Cyclohexylmethoxy)phenyl]-4,5-dihydro-1,2-oxazol-3-yl}-1,3-thiazol-2-yl)piperidinium chloride]
chromatographic logP (physchem; pH 2.7, log P (pH2.7)): 1.9

tert-Butyl 4-[4-(5-{2-[(cyclopropylmethoxy)carbonyl]phenyl}-4,5-dihydro-1,2-oxazol-3-yl)-1,3-thiazol-2-yl]piperidine-1-carboxylate [X-a-10]
log P (HCOOH) [1]: 4.99
